Test results taken from patent publication US12240825B2, “Oxexin 1 receptor antagonists” (Heptares Therapeutics Limited, priority 2019, dated 2025).

Tests used:
Human OX1 receptor [1] = molecular target: T1, Human OX1 receptor (Homo sapiens (Human), UniProt O43613); assay: IPone accumulation assay, CHO cells expressing OX1; format: cell-based; settings: antagonism of orexin A (EC80 ~20 nM)-induced inositol phosphate turnover, read-out: fpKb average OX1 (converted)
Description: Generation of CHO stable cell lines expressing the human OX1R and OX2R. Stable cell lines for the human OX1R and OX2R receptors were generated through the transfection of CHO cells using the transfection reagent Genejuice (Novagen number 70967) and cDNA coding for either the human OX1R or OX2R. Cells were cultured in Sigma Nutrient Mixture F-12 Ham media (catalog number N6658) supplemented with 10% heat-inactivated FBS. Forty-eight hours after transfection, cells were harvested and placed under geneticin selection by culturing in Sigma Nutrient Mixture F-12 Ham media supplemented with 10% heat-inactivated FBS and geneticin (ThermoFisher Catalog number: 10131035). Selection of the final stable clone for each receptor was made on the basis of receptor expression, assay signal to noise and robustness though increasing passage. Selected clones for the human OX1R and OX2R were then frozen down into liquid nitrogen using Cell Freezing Medium-DMSO (Sigma-Aldrich catalog number: C6164).
(§1) IPone accumulation assay. A CHO cell line stably expressing either human OX1 or OX2 receptor was used with the IPone HTRF assay kit (CisBio: Part #62IPAPEJ) to measure receptor activation. The assay was optimised to measure the ability (potency; fpKb) of antagonists to reduce agonist (orexin A)-induced inositol phosphate turnover. Briefly, cells were plated onto half area 96-well white walled plates at a density of 12,500 cells/well. Sixteen hours post-plating cell growth media was replaced with antagonist concentration-response curve diluted in stimulation buffer (supplied with the kit). Cells were incubated in a humidified incubator (37° C.) for 30 min before an EC80 challenge concentration (˜20 nM (OX1) and 40 nM (OX2)) of orexin A (Tocris catalogue number 1455). After 30 min stimulation in a humidified incubator (37° C.) the assay was terminated by the addition of detection mixture as per manufacturer's instructions. The concentration of compound which reduced orexin-A stimulated turnover of inositol phosphates by 50% (IC50) was calculated by fitting to a four parameter sigmoidal dose response curve. The IC50 values were converted to fpKB values using the orexin A pEC50 value estimated on each plate as well as the challenge concentration interpolated from the orexin A control curve.

Human OX1 receptor [2] = molecular target: T1, Human OX1 receptor; assay: [3H]-radioligand binding assay, OX1; settings: competition binding, membranes of SF21 cells, Ki by Cheng-Prusoff
Source text: (§2) Cloning, Baculovirus generation, large-scale infection of SF21 cells and membrane preparation. Human OX1 or OX2 receptor were cloned into Invitrogen's (ThermoFisher Scientific, UK) Bac-to-Bac Baculovirus Expression System. P0 baculovirus was generated by transfecting SF9 cells with bacmid DNA using Cellfectin® II transfection reagent (ThermoFisher Scientific, UK, Catalog number 10362-100). Following P0 generation P1 virus was then generated ready for large scale infection and membrane preparation. SF21 cells were grown in expression medium ESF921 (Expression Systems, USA, catalog number 96-001-01) supplemented with 10% heat-inactivated FBS and 1% Pen/Strep and were infected at a cell density of 2.5×10^6 cells/mL and a multiplicity of infection of 1.0 for both human OX1R and OX2R. Incubation was carried out at over 48 h in a shaking incubator set at 27° C. The cell culture was then centrifuged at 2,500 rcf for 10 min at 4° C. The pellets were resuspended in cold PBS supplemented with Roche's Complete EDTA-free protease inhibitor cocktail tablets (Roche Applied Sciences, catalog number 05056489001), 1 mM PMSF and 1 mM EDTA. The resuspended cell paste was then centrifuged at 3,273 rcf for 12 min at 4° C. The supernatant was discarded and the pellet frozen at −80° C. The cell pellet from a 4 L culture was resuspended in buffer containing 50 mM HEPES pH 7.5, 150 mM NaCl, 8 Roche EDTA-Free protease inhibitor cocktail tablets and 1 mM PMSF. The suspension was left stirring at rt for 1 h and then homogenised for 90 s at 9,500 rpm using a VDI 25 (VWR, USA) homogeniser. The cells were then lysed using a Microfluidiser processor M-110L Pneumatic (Microfluidics, USA) at 60 PSI and membranes collected by ultracentrifugation at 204.7 k×g for 1 h. The supernatant was discarded and the pellet was resuspended and homogenised in 90 s at 9,500 rpm in 50 mL (25 mL for each 2 L culture) of buffer containing 50 mM Hepes pH 7.5, 150 mM NaCl, 3 Roche EDTA-free protease inhibitor cocktail tablets and 1 mM PMSF. The resulting membranes were then stored at −80° C.
(§3) [^3H]-radioligand binding assay. After thawing, membrane homogenates were resuspended in the binding buffer (8.5 mM HEPES, pH 7.4, 1.3 mM CaCl2, 1.2 mM MgSO4, 118 mM NaCl, 4.7 mM KCl, 4 mM NaHCO3, 1.2 mM KH2PO4, 11 mM glucose) to a final assay concentration of 6.4 μg (OX1) or 1.4 μg (OX2) protein per well. Saturation isotherms were determined by the addition of various concentrations (0-30 nM) of [^3H]-4-(2,6-difluoro-4-methoxybenzyl)-2-(5,6-dimethoxypyridin-3-yl)-2H-1,2,4-benzothiadiazin-3(4H)-one 1,1-dioxide (Christopher et al, MedChemComm., 2015, 6, 947-955) in a total reaction volume of 250 μL for 90 min at rt. At the end of the incubation, membranes were filtered onto a 96-well GF/B filter pre-incubated with 0.5% polyethylenimine, with a Tomtec cell harvester and washed 5 times with 0.5 mL distilled water. Non-specific binding (NSB) was measured in the presence of 3.33 μM [4-(5-chloro-1,3-benzoxazol-2-yl)-7-methyl-1,4-diazepan-1-yl][5-methyl-2-(2H-1,2,3-triazol-2-yl)phenyl]methanone (Wertz et al, Angew. Chem. Int. Ed., 2011, 50, 11511-11515). Radioactivity on the filter was counted (1 min) on a Microbeta radiometric plate counter (Perkin Elmer) after addition of 50 μL of scintillation fluid (LabLogic: Part #SG-BXX-14). […] IC50 values were derived from the inhibition curve and the equilibrium dissociation constant (Ki) values were calculated using the Cheng-Prusoff equation.

Human OX2 receptor [3] = molecular target: T2, Human OX2 receptor (Homo sapiens (Human), UniProt O43614); assay: IPone accumulation assay, CHO cells expressing OX2; format: cell-based; settings: antagonism of orexin A (EC80 40 nM)-induced inositol phosphate turnover, read-out: fpKb average OX2 (converted)
Description: as §1, with “Generation of CHO stable cell lines expressing the human OX1R and OX2R. Stable cell lines for the human OX1R and OX2R receptors were generated through the transfection of CHO cells using the transfection reagent Genejuice (Novagen number 70967) and cDNA coding for either the human OX1R or OX2R. Cells were cultured in Sigma Nutrient Mixture F-12 Ham media (catalog number N6658) supplemented with 10% heat-inactivated FBS. Forty-eight hours after transfection, cells were harvested and placed under geneticin selection by culturing in Sigma Nutrient Mixture F-12 Ham media supplemented with 10% heat-inactivated FBS and geneticin (ThermoFisher Catalog number: 10131035). Selection of the final stable clone for each receptor was made on the basis of receptor expression, assay signal to noise and robustness though increasing passage. Selected clones for the human OX1R and OX2R were then frozen down into liquid nitrogen using Cell Freezing Medium-DMSO (Sigma-Aldrich catalog number: C6164). IPone accumulation” for “IPone accumulation”, “(CisBio: Part #62[…]) to measure” for “(CisBio: Part #62IPAPEJ) to measure”, “challenge concentration ( 20 nM (OX1)” for “challenge concentration (˜20 nM (OX1)”

Human OX2 receptor [4] = molecular target: T2, Human OX2 receptor; assay: [3H]-radioligand binding assay, OX2; settings: competition binding, membranes of SF21 cells, Ki by Cheng-Prusoff
Source text: as §2, §3

T2 sequence (O43614 whole entry): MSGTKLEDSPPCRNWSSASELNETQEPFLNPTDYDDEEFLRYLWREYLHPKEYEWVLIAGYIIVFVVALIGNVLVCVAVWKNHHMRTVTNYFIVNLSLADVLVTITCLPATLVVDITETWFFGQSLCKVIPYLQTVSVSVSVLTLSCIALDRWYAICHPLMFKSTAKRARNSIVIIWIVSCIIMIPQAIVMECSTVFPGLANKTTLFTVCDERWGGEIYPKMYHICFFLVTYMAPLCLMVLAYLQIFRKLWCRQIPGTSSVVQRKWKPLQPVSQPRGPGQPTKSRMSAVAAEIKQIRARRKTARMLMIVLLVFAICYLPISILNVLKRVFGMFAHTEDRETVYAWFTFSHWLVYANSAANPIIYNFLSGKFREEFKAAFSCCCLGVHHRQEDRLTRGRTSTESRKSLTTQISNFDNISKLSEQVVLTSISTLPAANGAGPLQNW
T1 sequence (O43613 whole entry): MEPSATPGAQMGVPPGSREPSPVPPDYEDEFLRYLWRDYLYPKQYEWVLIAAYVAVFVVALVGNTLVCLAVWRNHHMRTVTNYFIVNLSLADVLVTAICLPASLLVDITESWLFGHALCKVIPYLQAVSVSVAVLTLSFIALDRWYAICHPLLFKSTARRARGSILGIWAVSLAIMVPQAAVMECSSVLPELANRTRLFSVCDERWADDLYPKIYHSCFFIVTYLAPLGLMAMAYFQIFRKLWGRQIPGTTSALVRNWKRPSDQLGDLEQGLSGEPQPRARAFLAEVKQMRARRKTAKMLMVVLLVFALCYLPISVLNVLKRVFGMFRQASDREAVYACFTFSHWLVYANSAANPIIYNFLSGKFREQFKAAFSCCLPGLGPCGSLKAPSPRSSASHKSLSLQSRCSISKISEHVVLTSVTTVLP

## CC(=O)Nc1ccc(-n2nccn2)c(C(=O)N[C@H]2CCC[C@@H]2COc2ccc(F)c(F)c2)n1 [Example 9, 6-acetamido-N-[(1S,2S)-2-[(3,4-difluorophenoxy)methyl]cyclopentyl]-3-(triazol-2-yl)pyridine-2-carboxamide]
Human OX1 receptor [1]
  Kb: 25.1 nM
Human OX1 receptor [2]
  pKi average OX1: 8.2
Human OX2 receptor [3]
  Kb: > 200 nM
Human OX2 receptor [4]
  pKi average OX2: 5.9

## COC(=O)Nc1ccc(-n2nccn2)c(C(=O)N[C@H]2CCC[C@@H]2COc2ccc(F)cc2)n1 [Example 10, methyl N-[6-[[(1S,2S)-2-[(4-fluorophenoxy)methyl]cyclopentyl]carbamoyl]-5-(triazol-2-yl)-2-pyridyl]carbamate]
Human OX1 receptor [1]
  Kb: 79.4 nM
Human OX1 receptor [2]
  pKi average OX1: 8.1
Human OX2 receptor [3]
  Kb: > 794 nM
Human OX2 receptor [4]
  pKi average OX2: <5.9

## O=C(N[C@H]1CCC[C@@H]1COc1ccc(F)cc1)c1nc(NC(=O)C(F)F)ccc1-n1nccn1 [Example 11, 6-[(2,2-difluoroacetyl)amino]-N-[(1S,2S)-2-[(4-fluorophenoxy)methyl]cyclopentyl]-3-(triazol-2-yl)pyridine-2-carboxamide]
Human OX1 receptor [1]
  Kb: 31.6 nM
Human OX1 receptor [2]
  pKi average OX1: 7.9
Human OX2 receptor [3]
  Kb: > 1000 nM
Human OX2 receptor [4]
  pKi average OX2: <5.8

## CC(=O)Nc1ccc(-c2ncccn2)c(C(=O)N[C@H]2CCC[C@@H]2COc2ccc(F)cc2)n1 [Example 14, 6-acetamido-N-[(1S,2S)-2-[(4-fluorophenoxy)methyl]cyclopentyl]-3-pyrimidin-2-yl-pyridine-2-carboxamide]
Human OX1 receptor [1]
  Kb: 3.98 nM
Human OX1 receptor [2]
  pKi average OX1: 8.3
Human OX2 receptor [3]
  Kb: > 398 nM
Human OX2 receptor [4]
  pKi average OX2: 6.0

## CC(=O)Nc1ccc(-c2ncccn2)c(C(=O)N[C@H]2CCC[C@@H]2COc2ccc(Cl)cc2)n1 [Example 15, 6-acetamido-N-[(1S,2S)-2-[(4-chlorophenoxy)methyl]cyclopentyl]-3-pyrimidin-2-yl-pyridine-2-carboxamide]
Human OX1 receptor [1]
  Kb: 3.98 nM
Human OX1 receptor [2]
  pKi average OX1: 8.7
Human OX2 receptor [3]
  Kb: > 631 nM
Human OX2 receptor [4]
  pKi average OX2: 6.2

## COCC(=O)Nc1ccc(-c2ncccn2)c(C(=O)N[C@H]2CCC[C@@H]2COc2ccc(F)cc2)n1 [Example 16, N-[(1S,2S)-2-[(4-fluorophenoxy)methyl]cyclopentyl]-6-[(2-methoxyacetyl)amino]-3-pyrimidin-2-yl-pyridine-2-carboxamide]
Human OX1 receptor [1]
  Kb: 200 nM
Human OX1 receptor [2]
  pKi average OX1: 7.7
Human OX2 receptor [3]
  Kb: > 1000 nM
Human OX2 receptor [4]
  pKi average OX2: <5.1

## CC(=O)Nc1ccc(-n2nccn2)c(C(=O)N[C@H]2CCC[C@@H]2COc2ccc(F)cc2F)n1 [Example 17, 6-acetamido-N-[(1S,2S)-2-[(2,4-difluorophenoxy)methyl]cyclopentyl]-3-(triazol-2-yl)pyridine-2-carboxamide]
Human OX1 receptor [1]
  Kb: 50.1 nM
Human OX1 receptor [2]
  pKi average OX1: 9.1
Human OX2 receptor [3]
  Kb: > 63.1 nM
Human OX2 receptor [4]
  pKi average OX2: 5.4

## CC(=O)Nc1ccc(-c2ncccn2)c(C(=O)N(C)[C@H]2CCC[C@@H]2COc2ccc(F)cc2)n1 [Example 18, 6-acetamido-N-[(1S,2S)-2-[(4-fluorophenoxy)methyl]cyclopentyl]-N-methyl-3-pyrimidin-2-yl-pyridine-2-carboxamide]
Human OX1 receptor [1]
  Kb: 0.631 nM
Human OX1 receptor [2]
  pKi average OX1: 8.6
Human OX2 receptor [3]
  Kb: > 501 nM
Human OX2 receptor [4]
  pKi average OX2: 6.8

## O=C(N[C@H]1CCC[C@@H]1COc1ccc(F)cc1)c1nc(NCC(F)F)ccc1-n1nccn1 [Example 19, 6-(2,2-difluoroethylamino)-N-[(1S,2S)-2-[(4-fluorophenoxy)methyl]cyclopentyl]-3-(triazol-2-yl)pyridine-2-carboxamide]
Human OX1 receptor [1]
  Kb: 15.8 nM
Human OX1 receptor [2]
  pKi average OX1: 8.8
Human OX2 receptor [3]
  Kb: > 501 nM
Human OX2 receptor [4]
  pKi average OX2: 6.6

## O=C(N[C@H]1CCC[C@@H]1COc1ccc(F)cc1)c1nc(NCCO)ccc1-n1nccn1 [Example 20, N-[(1S,2S)-2-[(4-fluorophenoxy)methyl]cyclopentyl]-6-(2-hydroxyethylamino)-3-(triazol-2-yl)pyridine-2-carboxamide]
Human OX1 receptor [1]
  Kb: 7.94 nM
Human OX1 receptor [2]
  pKi average OX1: 8.4
Human OX2 receptor [3]
  Kb: > 501 nM
Human OX2 receptor [4]
  pKi average OX2: 5.8

## CC(=O)Nc1ccc(-c2ncc(F)cn2)c(C(=O)N[C@H]2CCC[C@@H]2COc2ccc(F)cc2)n1 [Example 21, 6-acetamido-N-[(1S,2S)-2-[(4-fluorophenoxy)methyl]cyclopentyl]-3-(5-fluoropyrimidin-2-yl)pyridine-2-carboxamide]
Human OX1 receptor [1]
  Kb: 20 nM
Human OX1 receptor [2]
  pKi average OX1: 8.2
Human OX2 receptor [3]
  Kb: > 794 nM
Human OX2 receptor [4]
  pKi average OX2: 5.6
